The results in this text go back to patent US9868707B2, “Small molecule agonists of neurotensin receptor 1” (SANFORD-BURNHAM MEDICAL RESEARCH INSTITUTE, priority 2012, dated 2018).

This test addresses NTR1 (Homo sapiens, UniProt P30989). Briefly: NTR1 high-content imaging (HCS) dose response, NTR1-U2OS cells. Format: cell-based. On the set-up: host or cells: U2OS osteosarcoma. To be noted: n = 4 unless otherwise noted; for EC50: Ave. ± S.E.M., read-out: HCS NTR1 Potency EC50; for Emax: read-out: HCS NTR1 Potency Emax. From the text: The cell lines utilized in the high-content imaging assays, which include the NTR1-, NTR2-, and GPR35-U2OS osteosarcomas, were obtained from the laboratory of Dr. Lawrence Barak at the Duke University Medical Center. The media used in the culture of the cell lines, as well as the assays themselves, consisted of Minimum Essential Medium (15-010-CM) and L-glutamine (25-005-CL) from Cellgro/Mediatech (Manassas, Va.), fetal bovine serum (SH30396.03) from Hyclone (Logan, Utah), penicillin-streptomycin solution (PS-20) from Omega Scientific in Tarzana, Calif., G418 (ant-gn-1) from Invivogen (San Diego, Calif.), and zeocin (R250-01) from Invitrogen (Carlsbad, Calif.). Cell lines were cultured in T225 tissue culture flasks (431082) supplied by Corning (Corning, N.Y.). Additional reagents employed include Dulbecco's Phosphate-Buffered Saline (DPBS) (21-031CV) from Cellgro/Mediatech, Trypsin-EDTA 0.05% (25300) from Invitrogen, paraformaldehyde (30528954) from Acros Organics (Geel, Belgium), Hoechst 33342 (H3570) from Invitrogen. The high-content assays were run in 1536-well plates (29326) supplied by Aurora Biotechnology (Poway, Calif.) and utilized aluminum plate seals (T592100) from E&K Scientific (Santa Clara, Calif.).
The neurotensin 1 peptide (N6383) from Sigma-Aldrich (St. Louis, Mo.) was used as a positive control in the NTR1 primary HCS assay. For the NTR2 selectivity assay, the non-specific, small molecule 3-(4-fluorophenyl)-7,8-dimethoxy-5-(4-methylbenzyl)-5H-pyrazolo[4,3-c]quinolone which was synthesized internally was used as a positive control. The GPR35 selectivity screen utilized zaprinast (ALX430-020-M010) from Alexis Biochemicals (Farmingdale, N.Y.) as a control.
The high-content imaging based NTR1 primary screen in 1536-well format was utilized to assay the MLSMR library of chemical entities in the following manner. On day one, 4 uL of a cell suspension containing 350,000 NTR1-U2OS cells per mL is added to each well of a 1536-well assay plate. Cells are plated in MEM medium containing 2.5% Fetal Bovine Serum, 1% Penicillin/Streptomycin solution, 1% L-Glutamine, 400 ug/mL G418, and 200 ug/mL Zeocin. The assay plates are then incubated overnight at 37° C., under 5% CO2. Following the overnight incubation, a volume of 60 nL of the compounds at 2 mM in DMSO (final 20 μM, 1% DMSO) was transferred to columns 5-48 of the assay plates using a LabCyte Echo Liquid Handler. Next, 60 nL of DMSO were dispensed to columns 1-4, which served as the positive and neutral control wells. […] The assay plates were centrifuged on an Eppendorf 5810 centrifuge at 1000 rpm for 1 min to ensure even liquid levels in the wells of the assay plates. The assay plates were then returned to the incubator for 1 hour. Following the hour-long incubation at 37° C., the cells in each well were fixed with 4 uL of 6% paraformaldehyde added with a Multidrop Combi. The assay plates were centrifuged as before and incubated at room temperature for 1 hour. On the Kalypsys, plates were then aspirated down to 2.5 uL per well and washed twice with 11 uL per well of DPBS, followed by a final aspiration to 2.5 uL per well. On the Combi dispenser, 5 uL of 5 ug/mL Hoechst 33342 diluted in DPBS was added to each well of assay plates. The plates were again centrifuged as previously described, sealed, and incubated for at least 1 hour prior to being loaded on a PerkinElmer Opera QEHS.
Image acquisition was performed with a 45 plate capacity loader/stacker and the following settings: 40×0.6 NA air objective, acquisition camera set to 2-by-2 binning for an image size of 688 by 512 pixels, beta-arrestin-GFP acquired using 488 nm laser excitation and 540/75 nm emission filters, DAPI (nuclei) using 365 nm Xenon lamp excitation and 450/50 nm emission filters, 3 fields per well. Image analysis was performed using the Acapella Spot Detection Algorithm. For analysis settings and the metrics employed in the data analyses, please refer to supplemental information.

NTR1, sequence (P30989 whole entry, species assumed): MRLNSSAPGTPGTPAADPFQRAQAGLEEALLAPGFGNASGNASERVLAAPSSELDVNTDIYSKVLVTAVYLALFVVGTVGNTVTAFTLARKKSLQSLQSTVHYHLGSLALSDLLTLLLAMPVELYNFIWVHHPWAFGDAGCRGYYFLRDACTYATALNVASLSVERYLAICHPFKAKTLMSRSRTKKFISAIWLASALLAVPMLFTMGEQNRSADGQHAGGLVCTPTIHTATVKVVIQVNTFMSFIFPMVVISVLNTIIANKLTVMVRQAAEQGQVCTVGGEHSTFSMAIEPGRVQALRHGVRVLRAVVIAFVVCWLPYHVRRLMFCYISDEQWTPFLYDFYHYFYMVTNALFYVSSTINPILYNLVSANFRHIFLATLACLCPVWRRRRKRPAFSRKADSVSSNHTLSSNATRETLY

In the case of `COc1cc2nc(C(C)C)nc(N3CCN(c4ccccc4OC)CC3)c2cc1OC` [Compound 312, 2-isopropyl-6,7-dimethoxy-4-(4-(2-methoxyphenyl)piperazin-1-yl)quinazoline], the EC50 turned out to be 7.7 ± 1 µM and the Emax came to 100%.

For `COc1ccc(N2CCN(c3nc(C4CCC4)nc4cc(OC)c(OC)cc34)CC2)cc1` [Compound 329, 2-cyclobutyl-6,7-dimethoxy-4-(4-(4-methoxyphenyl)piperazin-1-yl)quinazoline], the EC50 is 46.4 ± 17.6 µM and the maximal response (Emax) worked out at 100%. For `COc1ccccc1N1CCN(c2nc(C3CCC3)nc3cc4c(cc23)OCO4)CC1` [Compound 337, 6-cyclobutyl-8-(4-(2-methoxyphenyl)piperazin-1-yl)-[1,3]dioxolo[4,5-g]quinazoline], in that order: 33.7 ± 16.7 µM and 87%. The like results for `COc1cc2nc(C3CCCC3)nc(N3CCN(c4ccccc4OC)CC3)c2cc1OC` [Compound 316, 2-cyclopentyl-6,7-dimethoxy-4-(4-(2-methoxyphenyl)piperazin-1-yl)quinazoline] were, in that order, 5.8 ± 1.5 µM and 92.8%. For `COc1ccc2c(N3CCN(c4ccccc4OC)CC3)nc(C3CCC3)nc2c1` [Compound 335, 2-cyclobutyl-7-methoxy-4-(4-(2-methoxyphenyl)piperazin-1-yl)quinazoline], in that order: 30 µM and 112%. Turning to `CCOc1ccccc1N1CCN(c2nc(C3CC3)nc3cc(OC)c(OC)cc23)CC1` [Compound 339, 2-cyclopropyl-4-(4-(2-ethoxyphenyl)piperazin-1-yl)-6,7-dimethoxyquinazoline], the EC50 came to 6.1 ± 0.4 µM and the Emax was 98.4%.

Consider `COc1cc2nc(-c3ccccc3)nc(N3CCN(c4ccc(F)cc4)CC3)c2cc1OC` [6,7-di-OMe; phenyl; 4-F, 2-phenyl-6,7-dimethoxy-4-(4-(4-fluorophenyl)piperazin-1-yl)quinazoline], for which the concentration giving a half-maximal response (EC50) is over 80 µM.

Take `COc1cccc(N2CCN(c3nc(C4CCC4)nc4cc(OC)c(OC)cc34)CC2)c1` [Compound 328, 2-cyclobutyl-6,7-dimethoxy-4-(4-(3-methoxyphenyl)piperazin-1-yl)quinazoline]: the half-maximal effective concentration (EC50) amounted to 17.2 ± 1 µM and the Emax was determined as 74.9%. The like results for `COc1cc2nc(C3CCC3)nc(N3CCN(c4ccccc4[N+](=O)[O-])CC3)c2cc1OC` [Compound 327, 2-cyclobutyl-6,7-dimethoxy-4-(4-(2-nitrophenyl)piperazin-1-yl)quinazoline] were, in that order, 75.4 ± 1.1 µM and 100%. In the case of `COc1ccc(N2CCN(c3nc(C4CCC4)nc4cc(OC)c(OC)cc34)CC2)c(OC)c1` [Compound 330, 2-cyclobutyl-4-(4-(2,4-dimethoxyphenyl)piperazin-1-yl)-6,7-dimethoxyquinazoline], the EC50 amounted to 22.8 ± 0.4 µM and the Emax was 103%. In the case of `COc1cc2nc(CC(C)C)nc(N3CCN(c4ccccc4OC)CC3)c2cc1OC` [Compound 313, 2-isobutyl-6,7-dimethoxy-4-(4-(2-methoxyphenyl)piperazin-1-yl)quinazoline], the EC50 came out at 15.1 ± 1.5 µM and the Emax turned out to be 96.3%. For `COc1cc2nc(C3CC3)nc(N3CCN(C(=O)c4ccccc4)CC3)c2cc1OC` [Compound 344, (4-(2-cyclopropyl-6,7-dimethoxyquinazolin-4-yl)piperazin-1-yl)(phenyl)methanone], in that order: 45.3 µM and 100%. For `COc1ccc2nc(C3CCC3)nc(N3CCN(c4ccccc4OC)CC3)c2c1` [Compound 334, 2-cyclobutyl-6-methoxy-4-(4-(2-methoxyphenyl)piperazin-1-yl)quinazoline], in that order: 10 ± 1.57 µM and 102%. For `CCc1nc(N2CCN(c3ccccc3OC)CC2)c2cc(OC)c(OC)cc2n1` [Compound 310, 2-ethyl-6,7-dimethoxy-4-(4-(2-methoxyphenyl)piperazin-1-yl)quinazoline], in that order: 42.6 ± 4.4 µM and 100%. For the molecule `COc1cc2nc(C3CCC3)nc(N3CCN(c4c(C)cccc4C)CC3)c2cc1OC` [Compound 331, 2-cyclobutyl-4-(4-(2,6-dimethylphenyl)piperazin-1-yl)-6,7-dimethoxyquinazoline], the EC50 stood at 61.2 ± 5.2 µM and the Emax amounted to 100%.

Regarding `COc1cc2nc(CCN3CCN(c4ccccc4OC)CC3)nc(N3CCN(c4ccccc4OC)CC3)c2cc1OC` [Compound 319, 6,7-dimethoxy-4-(4-(2-methoxyphenyl)piperazin-1-yl)-2-(2-(4-(2-methoxyphenyl)piperazin-1-yl)ethyl)quinazoline], the EC50 was determined as 25.9 ± 13.7 µM and the Emax was determined as 74.3%.

With `COc1cc2nc(Cc3ccccc3)nc(N3CCN(c4ccccc4OC)CC3)c2cc1OC` [Compound 309, 2-benzyl-6,7-dimethoxy-4-(4-(2-methoxyphenyl)piperazin-1-yl)quinazoline], the concentration for a half-maximal effect (EC50) is 13.8 ± 3.4 µM and the maximal response (Emax) worked out at 81.9%. For `COc1ccccc1N1CCN(c2nc(C3CCC3)nc3ccccc23)CC1` [Compound 336, 2-cyclobutyl-4-(4-(2-methoxyphenyl)piperazin-1-yl)quinazoline], in that order: 22.6 ± 3.9 µM and 100%.

As to `COc1cc2nc(C3CCC3)nc(N3CCN(c4ccccc4F)CC3)c2cc1OC` [Compound 324, 2-cyclobutyl-4-(4-(2-fluorophenyl)piperazin-1-yl)-6,7-dimethoxyquinazoline], the EC50 was determined as 17.7 ± 1 µM and the Emax was determined as 97.2%. For the molecule `COc1cc2nc(C3CCC3)nc(N3CCN(c4ccccc4Cl)CC3)c2cc1OC` [Compound 325, 4-(4-(2-chlorophenyl)piperazin-1-yl)-2-cyclobutyl-6,7-dimethoxyquinazoline], the EC50 amounted to 12.2 ± 2.5 µM and the Emax was determined as 70.5%. Take `CCCc1nc(N2CCN(c3ccccc3OC)CC2)c2cc(OC)c(OC)cc2n1` [Compound 311, 6,7-dimethoxy-4-(4-(2-methoxyphenyl)piperazin-1-yl)-2-propylquinazoline]: the EC50 worked out at 16.6 ± 1.7 µM and the Emax worked out at 100%. The like results for `COc1cc2nc(C3CC3)nc(N3CCN(c4ccccc4Cl)CC3)c2cc1OC` [Compound 340, 4-(4-(2-chlorophenyl)piperazin-1-yl)-2-cyclopropyl-6,7-dimethoxyquinazoline] were, in that order, 19.8 ± 2.2 µM and 100%. For `COc1cc2nc(CC3CC3)nc(N3CCN(c4ccccc4OC)CC3)c2cc1OC` [Compound 317, 2-(cyclopropylmethyl)-6,7-dimethoxy-4-(4-(2-methoxyphenyl)piperazin-1-yl)quinazoline], in that order: 14.2 ± 1.2 µM and 96.9%. The like results for `C=Cc1nc(N2CCN(c3ccccc3OC)CC2)c2cc(OC)c(OC)cc2n1` [Compound 314, 6,7-dimethoxy-4-(4-(2-methoxyphenyl)piperazin-1-yl)-2-vinylquinazoline] were, in that order, 7 ± 1 µM and 100%. `COc1cc2nc(C3CC3)nc(N3CCN(C(=O)c4ccccc4OC)CC3)c2cc1OC` [Compound 345, (4-(2-cyclopropyl-6,7-dimethoxyquinazolin-4-yl)piperazin-1-yl)(2-methoxyphenyl)methanone]: the EC50 is 67.7 ± 5.5 µM and the Emax turned out to be 100%.
